Values of other authors in patent publication US20130136780A1, “CROSSLINKED POLYSACCHARIDE GEL COMPOSITIONS FOR MEDICAL AND COSMETIC APPLICATIONS” (ALLERGAN, INC., priority 2007, published 2013).

Conditions: osteoarthritis patient, intra-articular injection of 40 mg; Selvi et al. 2004

For `CC(C)(C)CC(=O)OCC(=O)[C@@]12OC(C)(C)O[C@@H]1C[C@H]1[C@@H]3CCC4=CC(=O)C=C[C@]4(C)[C@@]3(F)[C@@H](O)C[C@@]12C` [triamcinolone hexacetonide], which “adverse outcome after intra-articular injection (case report)” value is on record?
The value was “developed acute arthritis induced by the injected triamcinolone crystals”.
